Molecules are shown by their SMILES.

What is called melting point is the temperature, or range, at which the solid turns liquid.

For series [1], the system named is Blumeria qraminis f. sp. tritici (Erysiphe qraminis f. sp. tritici). Kind of series: Blumeria graminis f. sp. tritici / wheat / leaf disc preventative (powdery mildew on wheat). It counts as in vivo. The settings on record: foliar, wheat leaf segments cv. Kanzler, inoculated 1 day after application, assessed 6-8 days after application, read-out: inhibit fungal infestation (percent disease control compared to untreated).

The subject of another series is Pythium ultimum. Put plainly: Pythium ultimum / liquid culture (seedling damping off). It counts as cell-based. The settings on record: Globisporangium ultimum, liquid culture in PDB, 24° C., 2-3 days after application, read-out: inhibit fungal infestation (inhibition of growth determined photometrically).
A further series has as its system Phytophthora infestans. Put plainly: whole plant or invertebrate. The settings on record: in Solanum lycopersicum, foliar, read-out: inhibit fungal infestation (percent disease control compared to untreated). It counts as in vivo.
The test system of a further series is Plasmopara viticola. Put plainly: Plasmopara viticola / grape / leaf disc preventative. It counts as in vivo. To be noted: foliar, grape vine leaf disks, inoculated 1 day after application, assessed 6-8 days after application, read-out: inhibit fungal infestation (percent disease control compared to untreated).

Compound `CSC(Oc1cc(Cl)c2ncc(Br)cc2c1)C(=O)NCc1ccno1` (centres unmarked) [Compound 1] came in with a melting point of 143 °C. In addition, the inhibition at 200 ppm in series [1] is no less than 80%.

For the compound `CSC(Oc1ccc2ncc(I)cc2c1)C(=O)NCc1ccno1` (centres unmarked) [Compound 2], the melting point is 153 °C. Moreover, the inhibition at 200 ppm in series [1] was no less than 80%. Besides, the inhibition at 200 ppm with Pythium ultimum is no less than 80%.

In turn, `CSC(Oc1ccc2ncc(Br)cc2c1)C(=O)NCc1ccno1` (centres unmarked) [Compound 3] showed a melting point of 140 °C. Also, the inhibition at 200 ppm in series [1] was no less than 80%. Further, in the series with Pythium ultimum, the inhibition at 200 ppm was no less than 80%.

Turning to `C#Cc1cnc2ccc(OC(SC)C(=O)NCc3ccno3)cc2c1` (centres unmarked) [Compound 4], the melting point was 115 °C. Besides, the inhibition at 200 ppm in the series with Phytophthora infestans was no less than 80%. Further, the inhibition at 200 ppm in series [1] is no less than 80%. The inhibition at 200 ppm in the series on Pythium ultimum was no less than 80%.

`CSC(Oc1ccc2ncc(Br)cc2c1)C(=O)NCc1ccccn1` (centres unmarked) [Compound 5] gave a melting point of 104 °C. In addition, in the series on Pythium ultimum, the inhibition at 200 ppm was no less than 80%.

`CSC(Oc1ccc2ncc(I)cc2c1)C(=O)NCc1ccccn1` (centres unmarked) [Compound 6] yielded a melting point of 109 °C. Besides, the inhibition at 200 ppm in series [1] is no less than 80%. Moreover, the inhibition at 200 ppm in the series with Pythium ultimum is no less than 80%.

Regarding `COC(Oc1cc(Cl)c2ncc(Br)cc2c1)C(=O)NC(C)(C)c1ccccn1` (centres unmarked) [Compound 14], the melting point came out at 95 °C.

As to `C#Cc1cnc2c(C)cc(OC(SC)C(=O)NC(C)(C)c3cccc(C)n3)cc2c1` (centres unmarked) [Compound 16], the melting point turned out to be 123 °C. Also, the inhibition at 200 ppm in the series on Plasmopara viticola was no less than 80%. For the same compound, the inhibition at 200 ppm in series [1] is no less than 80%. Besides, in the series with Pythium ultimum, the inhibition at 200 ppm is no less than 80%.

As to `C#Cc1cnc2c(C)cc(OC(SC)C(=O)NC(C)(C)c3cc(C)ccn3)cc2c1` (centres unmarked) [Compound 17], the melting point was determined as 82 °C. For the same compound, in the series on Plasmopara viticola, the inhibition at 200 ppm was no less than 80%. Moreover, in series [1], the inhibition at 200 ppm is no less than 80%. Moreover, the inhibition at 200 ppm in the series on Pythium ultimum was no less than 80%.

In turn, `C#Cc1cnc2ccc(OC(SC)C(=O)NC(C)(C)c3ncc(Cl)s3)cc2c1` (centres unmarked) [Compound 19] had a melting point of 125 °C. For the same compound, in the series with Plasmopara viticola, the inhibition at 200 ppm was no less than 80%. The inhibition at 200 ppm in series [1] is no less than 80%. Moreover, the inhibition at 200 ppm in the series on Pythium ultimum is no less than 80%.

`C#Cc1cnc2c(F)cc(OC(SC)C(=O)NC(C)(C)c3cc(CC)on3)cc2c1` (centres unmarked) [Compound 21]: the melting point turned out to be 133 °C. In addition, in the series on Phytophthora infestans, the inhibition at 200 ppm is no less than 80%. In addition, the inhibition at 200 ppm with Plasmopara viticola was no less than 80%. In addition, in series [1], the inhibition at 200 ppm was no less than 80%. The inhibition at 200 ppm with Pythium ultimum was no less than 80%.

Consider `C#Cc1cnc2c(Cl)cc(OC(SC)C(=O)NC(C)(C)c3cc(CC)on3)cc2c1` (centres unmarked) [Compound 22], for which the melting point was 157 °C. Further, the inhibition at 200 ppm in the series on Phytophthora infestans is no less than 80%. For the same compound, in the series with Plasmopara viticola, the inhibition at 200 ppm is no less than 80%. For the same compound, the inhibition at 200 ppm in series [1] is no less than 80%. Moreover, in the series with Pythium ultimum, the inhibition at 200 ppm is no less than 80%.

Compound `C#Cc1cnc2ccc(OC(SC)C(=O)NCc3ccccn3)cc2c1` (centres unmarked) [Compound 25] had a melting point of 133 °C. For the same compound, the inhibition at 200 ppm in the series with Phytophthora infestans was no less than 80%. Besides, the inhibition at 200 ppm in series [1] is no less than 80%. The inhibition at 200 ppm in the series on Pythium ultimum is no less than 80%.

`C#Cc1cnc2c(C)cc(OC(SC)C(=O)NC(C)(C)c3ccc(Cl)nc3)cc2c1` (centres unmarked) [Compound 26]: the melting point was found to be 120 °C. In addition, the inhibition at 200 ppm in the series with Plasmopara viticola was no less than 80%. Also, the inhibition at 200 ppm in series [1] is no less than 80%. In addition, the inhibition at 200 ppm in the series on Pythium ultimum was no less than 80%.

Turning to `C#Cc1cnc2ccc(OC(SC)C(=O)NC(C)(C)c3ccc(Cl)nc3)cc2c1` (centres unmarked) [Compound 27], the melting point was found to be 114 °C. Besides, in the series with Pythium ultimum, the inhibition at 200 ppm was no less than 80%.

Turning to `C#Cc1cnc2ccc(OC(SC)C(=O)NCc3nccs3)cc2c1` (centres unmarked) [Compound 29], the melting point came out at 178 °C. Also, the inhibition at 200 ppm in the series on Plasmopara viticola is no less than 80%. In addition, the inhibition at 200 ppm in series [1] is no less than 80%. In addition, the inhibition at 200 ppm in the series on Pythium ultimum was no less than 80%.

Turning to `C#Cc1cnc2ccc(OC(SC)C(=O)NCc3nc(C)c(C)s3)cc2c1` (centres unmarked) [Compound 31], the melting point turned out to be 126 °C. Moreover, the inhibition at 200 ppm in the series with Phytophthora infestans was no less than 80%. Also, in series [1], the inhibition at 200 ppm was no less than 80%. In addition, in the series with Pythium ultimum, the inhibition at 200 ppm was no less than 80%.

For `C#Cc1cnc2c(F)cc(OC(SC)C(=O)NC(C)(C)c3cc(COC)on3)cc2c1` (centres unmarked) [Compound 89], the inhibition at 200 ppm (in the series with Phytophthora infestans; with Plasmopara viticola; in series [1]; in the series on Pythium ultimum) was no less than 80% throughout.

Take `C#Cc1cnc2c(C)cc(OC(SC)C(=O)NC(C)(C)c3cc(CC)on3)cc2c1` (centres unmarked) [Compound 94]: the inhibition at 200 ppm (in the series with Phytophthora infestans; in the series with Plasmopara viticola; in series [1]; in the series on Pythium ultimum) was no less than 80% in each case.

As for `C#Cc1cnc2c(Cl)cc(OC(SC)C(=O)NC(C)(C)c3cc(COC)on3)cc2c1` (centres unmarked) [Compound 96], the inhibition at 200 ppm (in the series with Phytophthora infestans; in the series with Plasmopara viticola; in series [1]; in the series on Pythium ultimum) was no less than 80% in each case.

As for `COCc1cc(C(C)(C)NC(=O)C(Oc2ccc3ncc(I)cc3c2)SC)no1` (centres unmarked) [Compound 105], the inhibition at 200 ppm (in the series with Phytophthora infestans; with Plasmopara viticola; in series [1]; with Pythium ultimum) was no less than 80% each time.

Regarding `CSC(Oc1ccc2ncc(I)cc2c1)C(=O)NC(C)(C)c1cc(C)on1` (centres unmarked) [Compound 109], the inhibition at 200 ppm (with Phytophthora infestans; with Plasmopara viticola; in series [1]; in the series with Pythium ultimum) was no less than 80% in each case.

For the compound `CSC(Oc1ccc2ncc(I)cc2c1)C(=O)NC(C)(C)c1nocc1C` (centres unmarked) [Compound 110], the inhibition at 200 ppm (in the series on Phytophthora infestans; in the series on Plasmopara viticola; in series [1]; with Pythium ultimum) was no less than 80% each time.

In the case of `C=Cc1cnc2ccc(OC(SC)C(=O)NC(C)(C)c3ccccn3)cc2c1` (centres unmarked) [Compound 133, N-[1-methyl-1-(2-pyridyl)ethyl]-2-methylsulfanyl-2-[(3-vinyl-6-quinolyl)oxy]acetamide], the melting point fell in the range of 95 to 97 °C.

As for `C=Cc1cnc2c(Cl)cc(OC(OC)C(=O)NC(C)(C)c3ccccn3)cc2c1` (centres unmarked) [Compound 134], the melting point came to 93 °C. Further, in the series on Plasmopara viticola, the inhibition at 200 ppm is no less than 80%. For the same compound, the inhibition at 200 ppm in series [1] was no less than 80%. The inhibition at 200 ppm with Pythium ultimum was no less than 80%.

The compound `C=Cc1cnc2c(Cl)cc(OC(CC)C(=O)NC(C)(C)c3ccon3)cc2c1` (centres unmarked) [Compound 136] returned a melting point of 104 °C. The inhibition at 200 ppm in series [1] is no less than 80%. Further, the inhibition at 200 ppm in the series with Pythium ultimum was no less than 80%.

`C=Cc1cnc2c(F)cc(OC(OC)C(=O)NC(C)(C)c3ccon3)cc2c1` (centres unmarked) [Compound 138] returned a melting point of 118 °C. For the same compound, the inhibition at 200 ppm in series [1] was no less than 80%.

Consider `C=Cc1cnc2c(F)cc(OC(CC)C(=O)NC(C)(C)c3cc(CC)on3)cc2c1` (centres unmarked) [Compound 139], for which the melting point came to 114 °C. Also, the inhibition at 200 ppm with Phytophthora infestans was no less than 80%. Besides, the inhibition at 200 ppm with Plasmopara viticola was no less than 80%. Further, the inhibition at 200 ppm in the series with Pythium ultimum was no less than 80%.

With `COC(Oc1cc(Cl)c2ncc(Br)cc2c1)C(=O)NC(C)(C)c1nccs1` (centres unmarked) [Compound 140], the melting point worked out at 111 °C. For the same compound, the inhibition at 200 ppm in series [1] was no less than 80%.

The values above are taken from patent US20140045890A1, “NOVEL COMPOUNDS” (SYNGENTA PARTICIPATIONS AG, priority 2011, published 2014).
